According to patent US20070087976A1, “Topiramate and pharmaceutical formulations thereof” (priority 2005, published 2007):

Legend:
[1] = storage at 80° C. for one month, color changes; format: physicochemical
[2] = water absorption (sorption isotherm) at 25° C. and 90% r.h.; format: physicochemical
Description: Thus, the pure active substance absorbs less than 0.1% of water at 25° C. at 90% r.h., as indicated by the sorption isotherm shown in FIG. 1. […] The topiramate according to the invention is therefore particularly suitable for the preparation of pharmaceutical formulations. The tablet formulations according to the invention which are obtainable by direct compression absorb less moisture than commercially available tablets. […] In contrast, topiramate tablets according to the invention, as in example 1 below, absorb only 5.5% of water under the same conditions.

Q: What does the source list for `CC1(C)O[C@@H]2[C@@H](CO[C@@]3(COS(N)(=O)=O)OC(C)(C)O[C@@H]23)O1` [topiramate, 2,3:4,5-bis-O-(1-methylethylidene)-β-D-fructopyranose sulfamate]?
A: color changes on storage [1]: no color changes; water absorbed [2]: less than 0.1%
